# Patent publication US12622890B2, “Use of the active compound in the prevention or treatment of ovarian dysfunction diseases” (INSTITUTE OF BIOPHYSICS, CHINESE ACADEMY OF SCIENCES, priority 2022, dated 2026)
# How the values were obtained:
# Type in all cases: in vivo
# [1] = test system: POI mice; experiment: Serum FSH level in POI mice; settings: for FSH: serum, after 12 days 100 mg/kg/d oral
# Text: (§1) Biomarkers mentioned herein, such as follicle stimulating hormone (FSH), estrogen (e.g., E2), and superoxide dismutase (SOD), malondialdehyde (MDA), relative reactive oxygen species (ROS), and lactate dehydrogenase (LDH), etc., can be detected using methods commonly known in the field. Detection methods typically cover methods that quantify the level of a biomarker in a sample (quantitative methods). Which of the following methods are suitable for qualitative and/or quantitative detection of biomarkers is generally known to those skilled in the field. Samples can be conveniently measured, for example for proteins using immunoassays such as ELISA, RIA, etc., which are commercially available.
# (§2) After 12 days of administration, half of the mice in each group were sacrificed, and their blood was collected and kept still. The serum was separated after centrifugation at 4500 rpm and stored in a refrigerator at −80° C. for future use to measure levels of follicle stimulating hormone, estrogen, and the indexes of oxidative stress such as superoxide dismutase (SOD) and malondial dehyde (MDA).
# (§3) After 12 days of administration, half of the mice in each group were sacrificed, and their blood was collected and kept in still. The serum was separated after centrifugation at 4500 rpm and stored in a refrigerator at −80° C. for future use to measure levals of follicle stimulating hormone, estrogen, and the indexes of oxidative stress such as superoxide dismutase (SOD) and malondialdehyde (MDA).
# • 1. Hormone levels in mice blood of Example 1 are measured in this embodiment.
# [2] = test system: POI mice; experiment: Serum estradiol (E2) level in POI mice; settings: for E2: serum, after 12 days 100 mg/kg/d oral
# Text: as §1, §2, §3
# [3] = test system: POI mice; experiment: Serum superoxide dismutase (SOD) level, oxidative stress
# Text: as §1, §2, §3
# (§4) The oxidative stress hypothesis believes that the reduction of antioxidant components in the body leads to the weakening of the ability to remove free radicals, which leads to oxidative damage of biological macromolecules, and the imbalance of cellular oxidative and antioxidant functions, which leads to oxidative stress, and then leads to disease and aging. Oxygen free radicals act on unsaturated fatty acids of lipids to generate lipid peroxides, including malondialdehyde (MDA) and so on. The antioxidant defense system of scavenging free radicals includes superoxide dismutase (SOD) and so on. Recently, oxidative stress has been reported to be associated with ovarian aging and POI in primates. Therefore, this embodiment examined the effects of DMF, HDCA, and DMF+HDCA on oxidative stress in mice with premature ovarian failure, and the results are shown in Table 5, FIGS. 9 to 12.
# [4] = test system: POI mice; experiment: Serum malondialdehyde (MDA) level, oxidative stress
# Text: as §1, §2, §3, §4
# [5] = test system: POI mice; experiment: Serum lactate dehydrogenase (LDH) level
# Text: as §1
# [6] = test system: POI model mice; experiment: Estrous cycle observation by vaginal smear cytology in POI model mice
# [7] = Example 2, FIG. 8, not statistically significant
# [8] = serum, POI mice after treatment
# [9] = Example 2, during drug administration, FIG. 5B
compound,measurement,setting,value
"C[C@H](CCC(=O)O)[C@H]1CC[C@H]2[C@@H]3C[C@H](O)[C@@H]4C[C@H](O)CC[C@]4(C)[C@H]3CC[C@]12C [HDCA, hyodeoxycholic acid, reference compound]",Serum FSH level compared with the normal saline group,"[1]; Example 1, FIG. 6",decreasing trend
same,Serum FSH level compared with the normal saline group,[1]; [7],certain decreasing trend
same,FSH,[1]; Example 1 POI mice,4.85 ± 2.34 mIU/mL
same,FSH,[1]; Example 2 POI mice,1.65 ± 0.76 mIU/mL
same,Serum E2 level compared with the normal saline group,"[2]; Example 1, FIG. 7",tendency to increase
same,Serum E2 level compared with the normal saline group,[2]; [7],certain tendency to decrease
same,E2,[2]; Example 1 POI mice,49.69 ± 7.11 pg/mL
same,E2,[2]; Example 2 POI mice,42.96 ± 14.28 pg/mL
same,Activity of SOD compared with the normal saline group,"[3]; FIG. 9, difference not significant",increased
same,SOD,[3]; [8],14.59 ± 5.65 U/mL
same,MDA activity compared with the normal saline group,"[4]; FIG. 10, no significant difference",reduced to some extent
same,MDA,[4]; [8],2.86 ± 4.39 nmol/mL
same,Activity of LDH compared with the normal saline group,[5]; FIG. 12,reduced to some extent
same,LDH,[5]; [8],2821.58 ± 318.30 U/mL
same,Effect on mice with premature ovarian failure (conclusion from estrous cycle),[6]; Example 2,preventive and therapeutic effects
same,Average rate of diestrum (D) in estrous cycle,[6]; [9],52.08%
same,Average rate of estrous (E) stage in estrous cycle,[6]; [9],6.25%
same,Average rate of metestrum (M) in estrous cycle,[6]; [9],12.50%
same,Average rate of proestrous (P) in estrous cycle,[6]; [9],29.17%
same,Number of mice with estrous cycle recovered,"[6]; Example 2, 12 days observation, DMF n=5, HDCA n=6, DMF and HDCA n=7",3 mice
